We go through 4 compounds from patent publication US6727232B2, “Nucleoside peptide antibiotics of AA-896” (Wyeth Holdings Corporation, priority 2001, dated 2004).

By MIC is commonly meant the smallest concentration in the dilution series that meets the test's criterion for growth inhibition.

Experiment in all cases: Broth dilution MIC
What all share (type): cell-based
On the technique in general: Dilution methods test growth across graded concentrations, often in twofold steps.

One assay relates to CNS GC 4537. The conditions noted are these: CNS GC 4537; Mueller-Hinton broth, 18 hours at 35° C.; read-out: Antimicrobial Activity (MIC). A digest of the protocol:
(§1)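 Compounds were serially diluted in Mueller-Hinton broth and inoculated with bacterial suspension. After 18 hours at 35° C., the MIC was taken as the lowest concentration inhibiting visible growth of the strain.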

In the next assay the test system is CNS GC 4538. The settings on record: CNS GC 4538; Mueller-Hinton broth, 18 hours at 35° C.; read-out: Antimicrobial Activity (MIC). In a few lines: as §1
For the next assay, the system named is CNS GC 4547. The settings on record: CNS GC 4547; Mueller-Hinton broth, 18 hours at 35° C.; read-out: Antimicrobial Activity (MIC). A digest of the protocol: as §1
Another assay has as its system E. cloacae GC 3783. The settings on record: Enterobacter cloacae, GC3783; E. cloacae GC 3783; Mueller-Hinton broth, 18 hours at 35° C.; read-out: Antimicrobial Activity (MIC). A digest of the protocol: as §1
Another assay has as its system E. coli GC 2203. The conditions noted are these: Escherichia coli, GC2203; E. coli GC 2203; Mueller-Hinton broth, 18 hours at 35° C.; read-out: Antimicrobial Activity (MIC). A digest of the protocol: as §1
A further assay has as its system E. coli GC 3226. The conditions noted are these: Escherichia coli, GC3226; E. coli GC 3226; Mueller-Hinton broth, 18 hours at 35° C.; read-out: Antimicrobial Activity (MIC). A digest of the protocol:
as §1

The test system of another assay is E. coli GC 4559. The conditions noted are these: Escherichia coli, GC4559; E. coli GC 4559; Mueller-Hinton broth, 18 hours at 35° C.; read-out: Antimicrobial Activity (MIC). A digest of the protocol: as §1
The next assay has as its system E. coli GC 4560. The conditions noted are these: Escherichia coli, read-out: Antimicrobial Activity (MIC). In a few lines:
as §1

A further assay concerns E. faecalis GC 2242. The conditions noted are these: Enterococcus faecalis, GC2242; E. faecalis GC 2242; Mueller-Hinton broth, 18 hours at 35° C.; read-out: Antimicrobial Activity (MIC). In a few lines:
as §1

The next assay deals with E. faecalis GC 4555. The conditions noted are these: Enterococcus faecalis, GC4555; E. faecalis GC 4555; Mueller-Hinton broth, 18 hours at 35° C.; read-out: Antimicrobial Activity (MIC). In a few lines:
as §1

The test system of the next assay is E. faecalis GC 842. The settings on record: Enterococcus faecalis, GC842; E. faecalis GC 842; Mueller-Hinton broth, 18 hours at 35° C.; read-out: Antimicrobial Activity (MIC). In a few lines:
as §1

A further assay relates to K. pneumoniae GC 4534. The conditions noted are these: Klebsiella pneumoniae, GC4534; K. pneumoniae GC 4534; Mueller-Hinton broth, 18 hours at 35° C.; read-out: Antimicrobial Activity (MIC). A digest of the protocol: as §1
For the next assay, the system named is M. morganii GC 4531. The settings on record: Morganella morganii, GC4531; M. morganii GC 4531; Mueller-Hinton broth, 18 hours at 35° C.; read-out: Antimicrobial Activity (MIC). A digest of the protocol:
as §1

The next assay relates to P. aeruginosa GC 2214. The conditions noted are these: Pseudomonas aeruginosa, GC2214; P. aeruginosa GC 2214; Mueller-Hinton broth, 18 hours at 35° C.; read-out: Antimicrobial Activity (MIC). A digest of the protocol: as §1
The test system of the next assay is P. aeruginosa GC 4532. The settings on record: Pseudomonas aeruginosa, GC4532; P. aeruginosa GC 4532; Mueller-Hinton broth, 18 hours at 35° C.; read-out: Antimicrobial Activity (MIC). In a few lines:
as §1

Another assay relates to P. rettgeri GC 4530. The settings on record: Providencia rettgeri, GC4530; P. rettgeri GC 4530; Mueller-Hinton broth, 18 hours at 35° C.; read-out: Antimicrobial Activity (MIC). A digest of the protocol:
as §1

The subject of the next assay is S. aureus GC 1131. The settings on record: Staphylococcus aureus, GC1131; S. aureus GC 1131; Mueller-Hinton broth, 18 hours at 35° C.; read-out: Antimicrobial Activity (MIC). In a few lines: as §1
A further assay relates to S. aureus GC 2216. The settings on record: Staphylococcus aureus, GC2216; S. aureus GC 2216; Mueller-Hinton broth, 18 hours at 35° C.; read-out: Antimicrobial Activity (MIC). In a few lines:
as §1

For the next assay, the system named is S. aureus GC 4536. The conditions noted are these: Staphylococcus aureus, GC4536; S. aureus GC 4536; Mueller-Hinton broth, 18 hours at 35° C.; read-out: Antimicrobial Activity (MIC). A digest of the protocol:
as §1

In a further assay the test system is S. marcescens GC 4077. The conditions noted are these: Serratia marcescens, GC4077; S. marcescens GC 4077; Mueller-Hinton broth, 18 hours at 35° C.; read-out: Antimicrobial Activity (MIC). A digest of the protocol:
as §1

Where [1] appears, read: GC4560, E. coli GC 4560, Mueller-Hinton broth, 18 hours at 35° C.

In brackets after ≈: the same amount, converted by molar mass. Read-outs that look alike come from different tables or passages of the source.

`CCCCCCNC(=O)NC[C@H]1OC(O[C@H](C2C(=O)N(CCCCCC)C(=O)N2CCCNC(=O)C(NC(=O)C(NC(=O)NC(C(=O)O)C(C)C)C2CCNC(=N)N2)C(O)C(C)C)[C@H]2O[C@@H](n3ccc(=O)[nH]c3=O)[C@H](O)[C@@H]2O)[C@H](OC)[C@H]1O` (stereo partly drawn) [Example 14, 14-[5-((R)-{(2S,3S,4R,5R)-5-[2,4-Dioxo-3,4-dihydro-1 (2H)-pyrimidinyl]-3,4-dihydroxytetrahydro-2-furanyl}{[(3R,4S,5R)-5-({[(hexylamino)carbonyl]amino}methyl)-4-hydroxy-3-methoxytetrahydro-2-furanyl]oxy}methyl)-3-hexyl-2,4-dioxo-1-imidazolidinyl]-9-(1-hydroxy-2-methylpropyl)-6-(2-iminohexahydro-4-pyrimidinyl)-2-isopropyl-4,7,10-trioxo-3,5,8,11-tetraazatetradecan-1-oic Acid]: the MIC in the assay with CNS GC 4537 was 32 µg/mL (≈ 27.1 µM); in the assay with CNS GC 4538, 32 µg/mL (≈ 27.1 µM); in the assay with CNS GC 4547 it was 16 µg/mL (≈ 13.5 µM); with E. cloacae GC 3783, more than 32 µg/mL; in the assay on E. coli GC 2203, more than 32 µg/mL; in the assay on E. coli GC 3226 it was more than 32 µg/mL. Moreover, the MIC in the assay with E. coli GC 4559 was more than 32 µg/mL; with E. coli GC 4560 (setting [1]), 32 µg/mL (≈ 27.1 µM); in the assay with E. faecalis GC 2242, 32 µg/mL (≈ 27.1 µM); with E. faecalis GC 4555, more than 32 µg/mL; in the assay on E. faecalis GC 842 it was more than 32 µg/mL; with K. pneumoniae GC 4534, more than 32 µg/mL. For the same compound, the MIC was more than 32 µg/mL in the assay on M. morganii GC 4531; more than 32 µg/mL in the assay with P. aeruginosa GC 2214; more than 32 µg/mL with P. aeruginosa GC 4532; more than 32 µg/mL with P. rettgeri GC 4530; 32 µg/mL (≈ 27.1 µM) in the assay on S. aureus GC 1131; 32 µg/mL (≈ 27.1 µM) in the assay on S. aureus GC 2216. The MIC was 32 µg/mL (≈ 27.1 µM) in the assay with S. aureus GC 4536 and more than 32 µg/mL in the assay on S. marcescens GC 4077.
With `CCCCCCCCCCCCNC(=O)NC[C@H]1OC(O[C@H](C2C(=O)N(CCCCCCCCCCCC)C(=O)N2CCCNC(=O)C(NC(=O)C(NC(=O)NC(C(=O)O)C(C)C)C2CCNC(=N)N2)C(O)C(C)C)[C@H]2O[C@@H](n3ccc(=O)[nH]c3=O)[C@H](O)[C@@H]2O)[C@H](OC)[C@H]1O` (stereo partly drawn) [Example 15, 14-[5-((R)-{(2S,3S,4R,5R)-5-[2,4-Dioxo-3,4-dihydro-1 (2H)-pyrimidinyl]-3,4-dihydroxytetrahydro-2-furanyl}{[(3R,4S,5R)-5-({[(dodecylamino)carbonyl]amino}methyl)-4-hydroxy-3-methoxytetrahydro-2-furanyl]oxy}methyl)-3-dodecyl-2,4-dioxo-1-imidazolidinyl]-9-(1-hydroxy-2-methylpropyl)-6-(2-iminohexahydro-4-pyrimidinyl)-2-isopropyl-4,7,10-trioxo-3,5,8,11-tetraazatetradecan-1-oic Acid], the MIC in the assay on CNS GC 4537, in the assay with CNS GC 4538, in the assay with CNS GC 4547, with E. cloacae GC 3783, in the assay on E. coli GC 2203 and in the assay on E. coli GC 3226 was more than 32 µg/mL in each case. Besides, the MIC with E. coli GC 4559, in the assay with E. coli GC 4560 (setting [1]), with E. faecalis GC 2242, in the assay on E. faecalis GC 4555, in the assay with E. faecalis GC 842 and in the assay with K. pneumoniae GC 4534 was more than 32 µg/mL throughout. The MIC in the assay with M. morganii GC 4531, with P. aeruginosa GC 2214, with P. aeruginosa GC 4532, in the assay on P. rettgeri GC 4530, with S. aureus GC 1131 and in the assay with S. aureus GC 2216 was more than 32 µg/mL in each case. The MIC with S. aureus GC 4536 and in the assay with S. marcescens GC 4077 was more than 32 µg/mL each time.
With `CCCCCCCCCCCCCCCCNC(=O)NC[C@H]1OC(O[C@H](C(NCCCNC(=O)C(NC(=O)C(NC(=O)NC(C(=O)O)C(C)C)C2CCNC(=N)N2)C(O)C(C)C)C(=O)O)[C@H]2O[C@@H](n3ccc(=O)[nH]c3=O)[C@H](O)[C@@H]2O)[C@H](OC)[C@H]1O` (stereo partly drawn) [Example 16, 16-((R)-{(2S,3S,4R,5R)-5-[2,4-Dioxo-3,4-dihydro-1 (2H)-pyrimidinyl]-3,4-dihydroxytetrahydro-2-furanyl}{[(3R,4S,5R)-5-({[(hexadecylamino)carbonyl]amino}methyl)-4-hydroxy-3-methoxytetrahydro-2-furanyl]oxy}methyl)-9-(1-hydroxy-2-methylpropyl)-6-(2-iminohexahydro-4-pyrimidinyl)-2-isopropyl-4,7,10-trioxo-3,5,8,11,15-pentaazaheptadecane-1,17-dioic Acid], the MIC in the assay on CNS GC 4537, in the assay on CNS GC 4538, in the assay on CNS GC 4547, in the assay on E. cloacae GC 3783, in the assay with E. coli GC 2203 and with E. coli GC 3226 was more than 32 µg/mL in each case. Further, the MIC was more than 32 µg/mL in the assay with E. coli GC 4559; more than 32 µg/mL in the assay on E. coli GC 4560 (GC4560, 18 h); more than 32 µg/mL in the assay with E. faecalis GC 2242; more than 32 µg/mL in the assay with E. faecalis GC 4555; more than 32 µg/mL in the assay on E. faecalis GC 842; more than 32 µg/mL in the assay with K. pneumoniae GC 4534. The MIC in the assay on M. morganii GC 4531, with P. aeruginosa GC 2214, in the assay with P. aeruginosa GC 4532, in the assay on P. rettgeri GC 4530, in the assay on S. aureus GC 1131 and in the assay with S. aureus GC 2216 was more than 32 µg/mL each time. Also, the minimal inhibitory concentration (MIC) with S. aureus GC 4536 and in the assay with S. marcescens GC 4077 was more than 32 µg/mL throughout.
Consider `CCCCCNC[C@H]1OC(O[C@H](C(C(=O)O)N(CCCCC)CCCNC(=O)C(NC(=O)C(NC(=O)NC(C(=O)O)C(C)C)C2CCNC(=N)N2)C(O)C(C)C)[C@H]2O[C@@H](n3ccc(=O)[nH]c3=O)[C@H](O)[C@@H]2O)[C@H](OC)[C@H]1O` (stereo partly drawn) [Example 17, 16-[(R)-{(2S,3S,4R,5R)-5-[2,4-Dioxo-3,4-dihydro-1 (2H)-pyrimidinyl]-3,4-dihydroxytetrahydro-2-furanyl}({(3R,4S,5R)-4-hydroxy-3-methoxy-5-[(pentylamino)methyl]tetrahydro-2-furanyl}oxy)methyl]-9-(1-hydroxy-2-methylpropyl)-6-(2-iminohexahydro-4-pyrimidinyl)-2-isopropyl-4,7,10-trioxo-15-pentyl-3,5,8,11,15-pentaazaheptadecane-1,17-dioic Acid], for which the MIC is more than 32 µg/mL with CNS GC 4537; more than 32 µg/mL in the assay with CNS GC 4538; 32 µg/mL (≈ 29.5 µM) in the assay with CNS GC 4547; more than 32 µg/mL in the assay with E. cloacae GC 3783; more than 32 µg/mL with E. coli GC 2203; more than 32 µg/mL in the assay on E. coli GC 3226. For the same compound, the MIC was more than 32 µg/mL in the assay on E. coli GC 4559; 32 µg/mL (≈ 29.5 µM) with E. coli GC 4560 (GC4560, 18 h); 32 µg/mL (≈ 29.5 µM) in the assay with E. faecalis GC 2242; more than 32 µg/mL in the assay on E. faecalis GC 4555; more than 32 µg/mL in the assay on E. faecalis GC 842; more than 32 µg/mL in the assay on K. pneumoniae GC 4534. Besides, the MIC in the assay on M. morganii GC 4531, in the assay with P. aeruginosa GC 2214, in the assay with P. aeruginosa GC 4532, in the assay with P. rettgeri GC 4530, in the assay on S. aureus GC 1131 and in the assay on S. aureus GC 2216 was more than 32 µg/mL each time. For the same compound, the MIC in the assay with S. aureus GC 4536 and with S. marcescens GC 4077 was more than 32 µg/mL in each case.
